{
  "source": "patent US20220304911A1",
  "about": "“ORAL CARE PRODUCT WITH CANNABINOID COMPOUNDS” (Demetrix, Inc., priority 2021, published 2022)",
  "tested_on": "Streptococcus mutans (S. mutans)",
  "experiment": "minimum inhibitory concentration (MIC) assay against S. mutans",
  "type": "cell-based",
  "method": "As used herein “minimum inhibitory concentration” or “MIC” refers to the lowest concentration (in μg/mL) of an antibiotic that inhibits the growth of a given strain of bacteria.\nTo determine the ability of the cannabinoid compounds described herein to reduce, or eliminate, S. mutans, a minimum inhibitory concentration (“MIC”) assay was performed. The assay was performed by Charles River Discovery Research Services UK Limited (Portishead, United Kingdom) in accordance with industry standards.",
  "key": {"[1]": {"settings": "S. mutans, assay performed by Charles River Discovery Research Services UK Limited"}, "[2]": {"settings": "Streptococcus mutans, read-out: minimum inhibitory concentration (MIC) against S. mutans"}},
  "note": "Read-outs that look alike come from different tables or passages of the source.",
  "data": [
    {"compound": "CCCCCc1cc2c(c(O)c1C(=O)O)C1C3C(CCC3(C)O2)C1(C)C", "note": "(stereo not shown) [CBLA, cannabicyclolic acid]", "values": [
      {"measurement": "MIC", "setting": "[1]", "value": ">200", "unit": "µg/mL"}
    ]},
    {"compound": "CCCCCc1cc2c(c(O)c1C(=O)O)-c1cc(C)ccc1C(C)(C)O2", "note": "[CBNA, cannabinolic acid]", "values": [
      {"measurement": "MIC", "setting": "[1]", "value": ">200", "unit": "µg/mL"}
    ]},
    {"compound": "CCCCCc1cc(O)c2c(c1)OC(C)(C)c1ccc(C)cc1-2", "note": "[CBN, cannabinol]", "values": [
      {"measurement": "MIC", "setting": "Streptococcus mutans", "value": 50, "unit": "µg/mL"},
      {"measurement": "MIC", "setting": "[2]", "value": "> 25", "unit": "µg/mL"}
    ]},
    {"compound": "C=C(C)[C@@H]1CCC(C)=C[C@H]1c1c(O)cc(CCC)c(C(=O)O)c1O", "note": "[CBDVA, cannabidivarinic acid]", "values": [
      {"measurement": "MIC", "setting": "[1]", "value": 25, "unit": "µg/mL"}
    ]},
    {"compound": "CCCCCc1cc(O)c(C/C=C(\\C)CCC=C(C)C)c(O)c1C(=O)O", "note": "[CBGA, cannabigerolic acid]", "values": [
      {"measurement": "MIC", "setting": "Streptococcus mutans", "value": 25, "unit": "µg/mL"},
      {"measurement": "MIC", "setting": "[2]", "value": "< 25", "unit": "µg/mL"}
    ]},
    {"compound": "CCCCCc1cc(O)c2c(c1)OC1(C)CCC3C1C2C3(C)C", "note": "(stereo not shown) [CBL, cannabicyclol]", "values": [
      {"measurement": "MIC", "setting": "Streptococcus mutans", "value": "> 200", "unit": "µg/mL"},
      {"measurement": "MIC", "setting": "[2]", "value": "> 25", "unit": "µg/mL"}
    ]},
    {"compound": "C=C(C)[C@@H]1CCC(C)=C[C@H]1c1c(O)cc(CC)cc1O", "note": "[CBD-C2, cannabidiol ethyl]", "values": [
      {"measurement": "MIC", "setting": "[1]", "value": 25, "unit": "µg/mL"}
    ]},
    {"compound": "CCCCCc1cc(O)c2c(c1)OC(C)(CCC=C(C)C)C=C2", "note": "(stereo not shown) [CBC, cannabichromene]", "values": [
      {"measurement": "MIC", "setting": "Streptococcus mutans", "value": 25, "unit": "µg/mL"},
      {"measurement": "MIC", "setting": "[2]", "value": "< 25", "unit": "µg/mL"}
    ]},
    {"compound": "CCCCCc1cc2c(c(O)c1C(=O)O)C=CC(C)(CCC=C(C)C)O2", "note": "(stereo not shown) [CBCA, cannabichromenic acid]", "values": [
      {"measurement": "MIC", "setting": "[1]", "value": ">200", "unit": "µg/mL"}
    ]},
    {"compound": "(+)-cannabidiol [(+)-CBD]", "values": [
      {"measurement": "MIC", "setting": "[1]", "value": 25, "unit": "µg/mL"}
    ]},
    {"compound": "C=C(C)[C@@H]1CCC(C)=C[C@H]1c1c(O)cc(CCC)cc1O", "note": "[CBDV, cannabidivarin]", "values": [
      {"measurement": "MIC", "setting": "Streptococcus mutans", "value": 25, "unit": "µg/mL"},
      {"measurement": "MIC", "setting": "[2]", "value": "< 25", "unit": "µg/mL"}
    ]},
    {"compound": "C=C(C)[C@@H]1CCC(C)=C[C@H]1c1c(O)cc(CCCCC)c(C(=O)O)c1O", "note": "[CBDA, cannabidiolic acid]", "values": [
      {"measurement": "MIC", "setting": "Streptococcus mutans", "value": 25, "unit": "µg/mL"},
      {"measurement": "MIC", "setting": "[2]", "value": "< 25", "unit": "µg/mL"}
    ]},
    {"compound": "C=C(C)[C@@H]1CCC(C)=C[C@H]1c1c(O)cc(CCCCC)cc1O", "note": "[CBD, cannabidiol]", "values": [
      {"measurement": "MIC", "setting": "Streptococcus mutans, S. mutans, assay performed by Charles River Discovery Research Services UK Limited, read-out: MIC", "value": 25, "unit": "µg/mL"},
      {"measurement": "MIC", "setting": "Streptococcus mutans, S. mutans, summary statement in the description, read-out: minimum inhibitory concentration (MIC) against S. mutans", "value": "< 25", "unit": "µg/mL"}
    ]},
    {"compound": "CCCc1cc(O)c(C/C=C(\\C)CCC=C(C)C)c(O)c1C(=O)O", "note": "[CBGVA, cannabigerovarinic acid]", "values": [
      {"measurement": "MIC", "setting": "[1]", "value": ">200", "unit": "µg/mL"}
    ]},
    {"compound": "CCCCc1cc(O)c(CC=C(C)CCC=C(C)C)c(O)c1", "note": "[CBG-C4, cannabigerol butyl]", "values": [
      {"measurement": "MIC", "setting": "[1]", "value": 25, "unit": "µg/mL"}
    ]},
    {"compound": "CCCCCc1cc(O)c(C/C=C(\\C)CCC=C(C)C)c(O)c1", "note": "[CBG, cannabigerol]", "values": [
      {"measurement": "MIC", "setting": "Streptococcus mutans", "value": 25, "unit": "µg/mL"},
      {"measurement": "MIC", "setting": "[2]", "value": "< 25", "unit": "µg/mL"}
    ]},
    {"compound": "C=C(C)[C@@H]1CCC(C)=C[C@H]1c1c(O)cc(C)cc1O", "note": "[CBD-C1]", "values": [
      {"measurement": "MIC", "setting": "[1]", "value": 100, "unit": "µg/mL"}
    ]},
    {"compound": "CCCCc1cc(O)c(C/C=C(\\C)CCC=C(C)C)c(O)c1C(=O)O", "note": "[CBGA-C4, cannabigerolic acid butyl]", "values": [
      {"measurement": "MIC", "setting": "[1]", "value": 12.5, "unit": "µg/mL"}
    ]},
    {"compound": "CCCc1cc(O)c(C/C=C(\\C)CCC=C(C)C)c(O)c1", "note": "[CBGV, cannabigerovarin]", "values": [
      {"measurement": "MIC", "setting": "[1]", "value": 25, "unit": "µg/mL"}
    ]},
    {"compound": "C=C(C)[C@@H]1CCC(C)=C[C@H]1c1c(O)cc(CCCC)cc1O", "note": "[CBD-C4, cannabidibutol]", "values": [
      {"measurement": "MIC", "setting": "[1]", "value": 25, "unit": "µg/mL"}
    ]}
  ]
}
